Source: patent US20200215003A1, “PARENTERAL ADMINISTRATION OF TAPENTADOL” (GRÜNENTHAL GMBH, priority 2011, published 2020)
Counter-ions that a name gives are not always drawn.

Columns and labels:
[1] = test system: carrageenan induced acute inflammatory pain in rats; test: carrageenan induced acute inflammatory pain (paw pressure test); format: in vivo; settings: for ED50: Rattus norvegicus, 0.25 h, acute pain, 15 min p. appl.; for time at which the peak effect was reached: p. appl., timepoint of first measurement
From the text: (§1) The weight ratios of the components (a) and (b) that will lead to a supra-additive effect (synergistic effect) of the inventive pharmaceutical composition may be determined via the paw pressure test of Randall and Selitto as described in Arch. Int. Pharmacodyn., 1957, 111: 409 to 419, which is a model for inflammatory pain. The respective part of the literature is hereby incorporated by reference and forms part of the present disclosure. Accordingly, the weight ratios of the components (a) and (b) that will lead to a supra-additive effect (synergistic effect) of the inventive pharmaceutical composition were determined in a model of acute pain (A) and a model of chronic pain (B).
Acute inflammation was induced by injection of a 0.1 ml carrageenan solution (0.5% in distilled water) subcutaneously into the plantar surface of the right hind paw of the rat. The mechanical nociceptive threshold was measured using an Algesiometer (Ugo Basile, Italy). The device generates a mechanical force with a linear increase over time. The force was applied to the dorsal surface of the inflamed hind paw via a cone-shaped stylus with a rounded tip (3 mm^2). The nociceptive threshold (Tv) was defined as the force at which the rat vocalises (cut-off force 450 g). Compounds or vehicle were given 3 h after carrageenan injection. The mechanical nociceptive threshold was measured at different times after the drug or vehicle administration. The drug effects are expressed as percentages of the maximal possible effect (MPE) based on the following formula: %MPE=(Tv drug−Tv control)/(cut-off−Tv control)×100. The group size is n=12.
(§2) The analysis of the results with respect to a supra-additive effect of the inventive pharmaceutical composition comprising the components (a) and (b) was carried out via statistical comparison of the theoretical additive ED50-value with the experimentally determined ED50-value of a so-called fixed ratio combination (isobolographic analysis according to Tallarida J T, Porreca F, and Cowan A. Statistical analysis of drug-drug and site-site interactions with isobolograms. Life Sci. 1989; 45: 947-961). The interactions studies presented herein were performed using equieffective doses of the two components, calculated from the ratio of the respective ED50 values of the components if administered alone.

[2] = test system: CFA induced chronic inflammatory pain in rats; test: Complete Freund Adjuvant (CFA) induced chronic inflammatory pain (paw pressure test); format: in vivo; settings: for ED50: Rattus norvegicus, ip, 0.25 h, chronic pain, 15 min p. appl.; for time at which the peak effect was reached: p. appl., timepoint of first measurement
From the text: as §1
Chronic inflammation was induced by an intraplantar injection of 0.05 mL of a CFA solution (Mycobacterium tuberculosis, H37 Ra, Difco Laboratories, Detroit, Mich., U.S.A.; 1 mg/mL in mineral oil) into one hind paw. The mechanical nociceptive threshold is measured before (prevalue) and one day after CFA injection using an Algesiometer (Ugo Basile, Italy). The device generates a mechanical force with a linear increase over time. The force is applied to the dorsal surface of the inflamed rat hind paw via a cone-shaped stylus with a rounded tip (2 mm tip diameter). The nociceptive threshold is defined as the force (in grams) at which the rat vocalises (cut-off force 450 g). The mechanical nociceptive threshold is measured at different timepoints after the drug or vehicle administration. The antinociceptive and antihyperalgesic activity of the tested substance is expressed as percentages of the maximal possible effect (%MPE). The maximal possible effect is defined as the percentage of prevalue withdrawal treshold before CFA-injection. The group size is n=10.
as §2

[3] = test system: diabetic hyperalgesia in male C57/BL/6 mice; test: streptozotocin-induced diabetic heat hyperalgesia, hot plate 50 °C; format: in vivo
[4] = clinical studies, compared with morphine; cited from earlier work
[5] = biological target: recombinantly produced μ-opioid receptor (Homo sapiens, UniProt P35372); settings: compared with morphine; cited from earlier work
recombinantly produced μ-opioid receptor, sequence (P35372 whole entry): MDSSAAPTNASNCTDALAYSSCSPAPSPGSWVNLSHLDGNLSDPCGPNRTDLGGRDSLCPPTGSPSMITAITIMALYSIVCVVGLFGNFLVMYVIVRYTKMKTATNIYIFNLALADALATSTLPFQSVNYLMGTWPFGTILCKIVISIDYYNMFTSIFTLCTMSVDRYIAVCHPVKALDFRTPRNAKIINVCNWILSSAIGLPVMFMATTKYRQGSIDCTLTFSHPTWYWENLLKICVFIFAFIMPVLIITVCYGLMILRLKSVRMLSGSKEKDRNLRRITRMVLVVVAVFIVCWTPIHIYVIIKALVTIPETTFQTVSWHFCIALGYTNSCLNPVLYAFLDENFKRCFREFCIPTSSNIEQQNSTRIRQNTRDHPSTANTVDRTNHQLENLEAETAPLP

| Structure (SMILES) | ED50 ([1]; ip) [mg/kg] | time at which the peak effect was reached [1] [min] | ED50 [2] [mg/kg] | time at which the peak effect was reached [2] [min] | combined intrathecal and intracerebroventricular ED 50 compared to theoretical additive effects ([3]; FIG. 7, p <0.001) | ED-50 ([3]; combination of intrathecal and intracerebroventricular administration, threshold values after 15 minutes) | ED-50 ([3]; intracerebroventricular administration, thermal hyperalgesia threshold values after 15 minutes) | inhibition of diabetic heat hyperalgesia ([3]; intracerebroventricular, 0.1, 0.3 and 1.00 μg (FIGS. 3 and 4)) | ED-50 ([3]; intrathecal administration, thermal hyperalgesia threshold values after 15 minutes) | inhibition of diabetic heat hyperalgesia ([3]; intrathecal plus intracerebroventricular, simultaneously (FIGS. 5 and 6)) | inhibition of diabetic heat hyperalgesia ([3]; intrathecal, 0.316, 1.00 and 3.16 μg (FIGS. 1 and 2)) | ED50 ([1]; iv) [mg/kg] | pain-alleviating action relative to morphine [4] | affinity to the recombinantly produced μ-opioid receptor relative to morphine [5] [times less] |
| --- | --- | --- | --- | --- | --- | --- | --- | --- | --- | --- | --- | --- | --- | --- |
| CCN(CC)CC(=O)Nc1c(C)cccc1C [Lidocaine, lidocaine hydrochloride] | 32.4 | 15 | 26.8 | 15 | – | – | – | – | – | – | – | – | – | – |
| CC[C@@H](c1cccc(O)c1)[C@@H](C)CN(C)C [tapentadol, (1 R,2R)-3-(3-dimethylamino-1-ethyl-2-methyl-propyl)-phenol] | – | 15 | 6.34 | 15 | synergistically better | 0.053 (0.032-0.074) mg/animal | 0.18 (0.14-0.22) mg/animal | dose-dependent inhibition | 0.42 (0.26-0.58) mg/animal | dose-dependent inhibition | dose-dependent inhibition | 1.75 | two to three times less | 18 |
